The text below walks through data of US20240270741A1 (Cogent Biosciences, Inc., priority 2023, published 2024).

Molecules are shown by their SMILES.

Sequence of FGFR2 (P21802 399-821 limits assumed): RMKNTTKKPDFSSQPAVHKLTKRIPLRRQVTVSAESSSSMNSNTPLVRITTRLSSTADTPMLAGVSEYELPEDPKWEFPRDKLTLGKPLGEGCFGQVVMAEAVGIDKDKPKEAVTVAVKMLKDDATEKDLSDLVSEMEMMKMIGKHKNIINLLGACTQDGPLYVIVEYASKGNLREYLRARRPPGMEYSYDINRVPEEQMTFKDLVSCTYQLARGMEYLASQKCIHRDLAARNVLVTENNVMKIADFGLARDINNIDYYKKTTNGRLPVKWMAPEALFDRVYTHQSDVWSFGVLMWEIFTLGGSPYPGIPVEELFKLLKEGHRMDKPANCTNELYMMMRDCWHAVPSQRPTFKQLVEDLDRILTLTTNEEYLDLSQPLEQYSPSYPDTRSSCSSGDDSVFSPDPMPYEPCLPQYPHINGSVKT

One experiment concerns the target FGFR2 (Homo sapiens, UniProt P21802). The experiment can be described thus: FGFR wild type enzyme assay (HTRF KinEASE-TK), FGFR2. The conditions noted are these: Enz FGFR2 (nM).
Consider `Cc1nc(Sc2cc(-c3cnn(C4CCNCC4)c3C)cn3ncc(C#N)c23)ccc1Cl` [Example 115, 4-[(5-chloro-6-methyl-2-pyridyl)sulfanyl]-6-[5-methyl-1-(4-piperidyl)pyrazol-4-yl]pyrazolo[1,5-a]pyridine-3-carbonitrile], for which it took 1 nM to reach half-maximal inhibition (IC50).
On the same count and under the same terms, with `Cc1c(-c2cc(Sc3ccccc3F)c3c(C#N)cnn3c2)cnn1C1CCN(C)CC1` [Example 125] the figure was 1 nM.

Still in this experiment, the particulars now being: Enz FGFR2 (nM), FGFR2 wild type enzyme.
In turn, `Cc1c(-c2cc(Sc3ccccc3C#N)c3c(C#N)cnn3c2)cnn1[C@H]1CC[C@@H](N(C)CCO)CC1` [Example 318, 4-((2-cyanophenyl)thio)-6-(1-((1s,4s)-4-((2-hydroxyethyl)(methyl)ami-no)cyclohexyl)-5-methyl-1H-pyrazol-4-yl)pyrazolo[1,5-a]pyridine-3-carbonitrile] gave an IC50 of 0.4 nM.
Still for that read-out and setting: then `Cc1c(-c2cc(Sc3ncccc3F)c3c(C#N)cnn3c2)cnn1[C@H]1CC[C@@H](N(C)S(C)(=O)=O)CC1` [Example 249, N-((1s,4s)-4-(4-(3-cyano-4-((3-fluoropyridin-2-yl)thio)pyrazolo[1,5-a]pyridin-6-yl)-5-methyl-1H-pyrazol-1-yl)cyclohexyl)-N-methylmethanesulfonamide], with 3 nM; and `Cc1c(-c2cc(Sc3ncccc3F)c3c(C#N)cnn3c2)cnn1[C@@H]1C[C@H]2CNC[C@H]2C1` [Example 226, 4-((3-fluoropyridin-2-yl)thio)-6-(5-methyl-1-((3sR,5s,6aS)-octahydrocyclopenta[c]pyr-rol-5-yl)-1H-pyrazol-4-yl)pyrazolo[1,5-a]pyridine-3-carbonitrile], with 1 nM; and `Cc1c(-c2cc(Sc3ncccc3F)c3c(C#N)cnn3c2)cnn1C1CCN(Cc2ncccn2)CC1` [Example 216, 4-((3-fluoropyridin-2-yl)thio)-6-(5-methyl-1-(1-(pyrimidin-2-ylmethyl)piperidin-4-yl)-1H-pyrazol-4-yl)pyrazolo[1,5-a]pyridine-3-carbonitrile], with 2 nM.
`CC(=O)N[C@H]1CC[C@@H](n2ncc(-c3cc(Sc4ccc(F)cc4C#N)c4c(C#N)cnn4c3)c2C)CC1` [Example 299, N-((1s,4S)-4-(4-(3-cyano-4-((2-cyano-4-fluorophenyl)thio)pyrazolo [1,5-a]pyridin-6-yl)-5-methyl-1H-pyrazol-1-yl)cyclohexyl)acetamide] displayed an IC50 of 1 nM.
As to `Cc1c(-c2cc(Sc3ccccc3C#N)c3c(C#N)cnn3c2)cnn1C1CCN(CCO)CC1` [Example 138, 4-((2-cyanophenyl)thio)-6-(1-(1-(2-hydroxyethyl)piperidin-4-yl)-5-methyl-1H-pyrazol-4-yl)pyrazolo[1,5-a]pyridine-3-carbonitrile], inhibition was half-maximal at 1 nM (IC50). This lies in the single-digit nanomolar range.
In turn, `Cc1c(-c2cc(Sc3ccccc3C#N)c3c(C#N)cnn3c2)cnn1[C@H]1CC[C@H](N(C)CCO)CC1` [Example 284, 4-((2-cyanophenyl)thio)-6-(1-((1r,4SR)-4-((2-hydroxyethyl)(methyl)ami-no)cyclohexyl)-5-methyl-1H-pyrazol-4-yl)pyrazolo[1,5-a]pyridine-3-carbonitrile] displayed an IC50 of 0.4 nM. Compared with the last compound, the IC50 is about 2.5-fold lower.

The same experiment, now with this note: Enz FGFR2 (nM), FGFR2 wild type enzyme assay.
`CN1CCC(n2ncc(-c3cc(Sc4ncccc4F)c4c(C#N)cnn4c3)c2Cl)CC1` [Example 395, 6-(5-chloro-1-(1-methylpiperidin-4-yl)-1H-pyrazol-4-yl)-4-((3-fluoropyridin-2-yl)thio)pyrazolo[1,5-a]pyridine-3-carbonitrile]: the IC50 was found to be 3 nM.
The same measure, in the same setting: then `CC(=O)N1CCC[C@H](n2ncc(-c3cc(Sc4nc(C)c(F)cc4F)c4c(C#N)cnn4c3)c2C)C1` [Example 431, (S)-6-(1-(1-acetylpiperidin-3-yl)-5-methyl-1H-pyrazol-4-yl)-4-((3,5-difluoro-6-methylpyridin-2-yl)thio)pyrazolo[1,5-a]pyridine-3-carbonitrile], with 2 nM; and `CC(=O)N1CCC(n2ncc(-c3cc(Sc4nccc(C)c4F)c4c(C#N)cnn4c3)c2C)CC1` [Example 382, 6-(1-(1-acetylpiperidin-4-yl)-5-methyl-1H-pyrazol-4-yl)-4-((3-fluoro-4-methylpyridin-2-yl)thio)pyrazolo[1,5-a]pyridine-3-carbonitrile], with 14 nM.
The same measure, in the same setting: then `CC(=O)N1CCC(n2ncc(-c3cc(Sc4ccc(F)cc4C#N)c4c(C#N)cnn4c3)c2C)CC1` [Example 338, 6-(1-(1-acetylpiperidin-4-yl)-5-methyl-1H-pyrazol-4-yl)-4-((2-cyano-4-fluorophenyl)thio)pyrazolo [1,5-a]pyridine-3-carbonitrile], with 1 nM.
For `CC(=O)N1CC[C@H](n2cc(-c3cc(Sc4ncccc4F)c4c(C#N)cnn4c3)cn2)C1` [Example 450, (S)-6-(1-(1-acetylpyrrolidin-3-yl)-1H-pyrazol-4-yl)-4-((3-fluoropyridin-2-yl)thio)pyrazolo[1,5-a]pyridine-3-carbonitrile], the IC50 worked out at 1 nM.
On the same count and under the same terms, then `CNC(=O)CCn1cc(-c2cc(Sc3ccccc3C#N)c3c(C#N)cnn3c2)cn1` [Example 672, 3-(4-(3-cyano-4-((2-cyanophenyl)thio)pyrazolo [1,5-a]pyridin-6-yl)-1H-pyazol-1-yl)-N-methylpropanamide], with 1 nM.
Still for that read-out and setting: with `N#Cc1cnn2cc(-c3cn([C@H]4CCNC4)nn3)cc(Sc3ncccc3F)c12` [Example 465, (S)-4-((3-fluoropyridin-2-yl)thio)-6-(1-(pyrrolidin-3-yl)-1H-1,2,3-triazol-4-yl)pyrazolo[1,5-a]pyridine-3-carbonitrile] the figure was 11 nM; with `CN(C)[C@H]1CC[C@@H](n2cc(-c3cc(Sc4ncccc4F)c4c(C#N)cnn4c3)nn2)CC1` [Example 392, 6-[1-[4-(dimethylamino)cyclohexyl]triazol-4-yl]-4-[(3-fluoro-2-pyridyl)sulfanyl] pyrazolo [1,5-a]pyridine-3-carbonitrile], 12 nM; with `N#Cc1ccccc1Sc1cc(-c2cnn([C@H]3CCN(C(=O)CO)C3)c2)cn2ncc(C#N)c12` [Example 484, (S)-4-((2-cyanophenyl)thio)-6-(1-(1-(2-hydroxyacetyl)pyrrolidin-3-yl)-1H-pyrazol-4-yl)pyrazolo[1,5-a]pyridine-3-carbonitrile], 0.4 nM.
On the same count and under the same terms, then `N#Cc1cnn2cc(-c3cnn([C@H]4CCNC4)c3)cc(Sc3ncccc3F)c12` [Example 421, (S)-4-((3-fluorop;yridin-2-yl)thio)-6-(1-(pyrrolidin-3-yl)-1H-pyrazol-4-yl)pyrazolo[1,5-a]pyridine-3-carbonitrile], with 5 nM; and `N#Cc1ccccc1Sc1cc(-c2cnn(CCC(=O)N3CC[C@@H](O)C3)c2)cn2ncc(C#N)c12` [Example 673, (R)-4-((2-cyanophenyl)thio)-6-(1-(3-(3-hydroxypyrrolidin-1-yl)-3-oxopropyl)-1H-pyrazol-4-yl)pyrazolo[1,5-a]pyridine-3-carbonitrile], with 0.2 nM.
The compound `COC(=O)N[C@]1(C)CC[C@H](n2ncc(-c3cc(Sc4ccc(F)cc4C#N)c4c(C#N)cnn4c3)c2C)CC1` [Example 364, methyl ((1s,4s)-4-(4-(3-cyano-4-((2-cyano-4-fluorophenyl)thio)pyrazolo [1,5-a]pyridin-6-yl)-5-methyl-1H-pyrazol-1-yl)-1-methylcyclohexyl)carba-mate] returned an IC50 of 3 nM.
On the same count and under the same terms, then `CS(=O)(=O)N1CCC[C@H](n2cc(-c3cc(Sc4ccccc4C#N)c4c(C#N)cnn4c3)cn2)C1` [Example 514, (S)-4-((2-cyanophenyl)thio)-6-(1-(1-(methylsulfonyl)piperidin-3-yl)-1H-pyrazol-4-yl)pyrazolo[1,5-a]pyridine-3-carbonitrile], with 1 nM; and `N#Cc1cnn2cc(-c3cn([C@H]4CCCNC4)c4nccnc34)cc(Sc3ncccc3F)c12` [Example 509, (S)-4-((3-fluoropyridin-2-yl)thio)-6-(5-(piperidin-3-yl)-5H-pyrrolo[2,3-b]pyrazin-7-yl)pyrazolo[1,5-a]pyridine-3-carbonitrile], with 22 nM; and `N#Cc1ccccc1Sc1cc(-c2cnn(C[C@H](O)CO)c2)cn2ncc(C#N)c12` [Example 544, (S)-4-((2-cyanophenyl)thio)-6-(1-(2,3-dihydroxypropyl)-1H-pyrazol-4-yl)pyrazolo[1,5-a]pyridine-3-carbonitrile], with 1 nM.
Same read-out and setting: then `COC(=O)N1CCC[C@H](n2cc(-c3cc(Sc4ncccc4F)c4c(C#N)cnn4c3)cn2)C1` [Example 479, methyl (S)-3-(4-(3-cyano-4-((3-fluoropyridin-2-yl)thio)pyrazolo[1,5-a]pyridin-6-yl)-1H-pyrazol-1-yl)piperidine-1-carboxylate], with 1 nM; and `CN(c1ccc(-c2cc(Sc3ccccc3C#N)c3c(C#N)cnn3c2)cn1)C1CCCNC1` (stereo not drawn) [Example 407, 4-(2-cyanophenyl)sulfanyl-6-[6-[methyl(3-piperidyl)amino]-3-pyridyl]pyrazolo[1,5-a]pyridine-3-carbonitrile], with 0.2 nM; and `N#Cc1ccccc1Sc1cc(-c2ccc(N3CCNCC3)nc2)cn2ncc(C#N)c12` [Example 526, 4-((2-cyanophenyl)thio)-6-(6-(piperazin-1-yl)pyridin-3-yl)pyrazolo[1,5-a]pyridine-3-carbonitrile], with 1 nM.
Still for that read-out and setting: then `Cc1c(-c2cc(Sc3ccc(F)cn3)c3c(C#N)cnn3c2)cnn1C1CCN(C(=O)[C@H](C)O)CC1` [Example 341, (S)-4-((5-fluoropyridin-2-yl)thio)-6-(1-(1-(2-hydroxypropanoyl)piperidin-4-yl)-5-methyl-1H-pyrazol-4-yl)pyrazolo[1,5-a]pyridine-3-carbonitrile], with 9 nM.
In the case of `Cc1c(-c2cc(Sc3ccc(F)cc3C#N)c3c(C#N)cnn3c2)cnn1[C@H]1CC[C@@](O)(CO)CC1` [Example 438, 4-(2-cyano-4-fluoro-phenyl) sulfanyl-6-[1-[4-hydroxy-4-(hydroxymethyl)cyclohexyl]-5-methylpyrazol-4-yl] pyrazolo[1,5-a]pyridine-3-carbonitrile], the IC50 amounted to 1 nM. Compared with the last compound, the IC50 is about 9-fold lower.
Same read-out and setting: with `CC(=O)N1CCC(n2cc(-c3cc(Sc4ccccc4C#N)c4c(C#N)cnn4c3)cn2)CC1` [Example 444, 6-(1-(1-acetylpiperidin-4-yl)-1H-pyrazol-4-yl)-4-((2-cyanophenyl)thio)pyrazolo [1,5-a]pyridine-3-carbonitrile] the figure was 0.3 nM.
